# Measurements published in ChEMBL document CHEMBL3627649, “Identification of Substituted Naphthotriazolediones as Novel Tryptophan 2,3-Dioxygenase (TDO) Inhibitors through Structure-Based Virtual Screening” (J Med Chem, 2015).
# Key:
# [1] = target: Indoleamine 2,3-dioxygenase 1 (Homo sapiens, UniProt P14902); assay: Inhibition of recombinant human IDO expressed in Escherichia coli incubated for 1 hr measured by fluorescence assay
# [2] = target: Tryptophan 2,3-dioxygenase (Homo sapiens, UniProt P48775); assay: Inhibition of recombinant human TDO expressed in Escherichia coli incubated for 1 hr measured by absorbance assay
# Tryptophan 2,3-dioxygenase, sequence (P48775 whole entry): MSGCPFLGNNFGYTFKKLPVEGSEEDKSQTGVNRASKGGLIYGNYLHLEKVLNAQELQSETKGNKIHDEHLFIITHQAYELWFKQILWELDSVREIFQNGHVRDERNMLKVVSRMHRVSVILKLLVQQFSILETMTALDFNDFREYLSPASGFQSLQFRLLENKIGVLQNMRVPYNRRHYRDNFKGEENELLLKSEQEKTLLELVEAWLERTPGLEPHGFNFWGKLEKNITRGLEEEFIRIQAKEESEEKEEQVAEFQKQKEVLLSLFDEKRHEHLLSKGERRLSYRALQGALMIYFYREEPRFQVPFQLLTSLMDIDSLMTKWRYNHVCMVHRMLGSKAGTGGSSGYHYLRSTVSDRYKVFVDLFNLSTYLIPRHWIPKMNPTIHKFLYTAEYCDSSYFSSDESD
# [3] = target: T1, Tyrosine-protein phosphatase non-receptor type 1 (Homo sapiens, UniProt P18031); assay: Inhibition of human PTP1B preincubated with protein for 15 mins followed by DiFMUP addition for 1 hr measured by fluorescence analysis
# T1 sequence (P18031 whole entry): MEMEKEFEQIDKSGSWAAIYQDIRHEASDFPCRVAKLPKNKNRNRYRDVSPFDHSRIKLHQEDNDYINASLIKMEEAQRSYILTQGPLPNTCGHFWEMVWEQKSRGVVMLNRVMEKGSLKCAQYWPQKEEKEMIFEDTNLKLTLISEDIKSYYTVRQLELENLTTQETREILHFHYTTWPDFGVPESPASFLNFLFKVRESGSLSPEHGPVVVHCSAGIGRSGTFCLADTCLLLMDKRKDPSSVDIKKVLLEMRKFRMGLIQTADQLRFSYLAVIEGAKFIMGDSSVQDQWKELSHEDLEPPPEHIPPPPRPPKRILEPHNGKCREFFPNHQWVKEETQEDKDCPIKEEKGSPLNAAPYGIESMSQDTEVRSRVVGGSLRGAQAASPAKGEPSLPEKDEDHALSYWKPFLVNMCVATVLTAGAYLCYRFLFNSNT
# [4] = Redox cycling activity of the compound assessed as H2O2 production incubated for 15 mins by HRP-PR assay in presence of 0.8 mM DTT
# [5] = Inhibition of Dengue virus type 2 NS2B-NS3 protease
# [6] = target: T2, Receptor-type tyrosine-protein kinase FLT3 (Homo sapiens, UniProt P36888); assay: Inhibition of FLT3 (unknown origin) expressed in Sf9 insect cells for 4 hrs by Kinase-Glo assay
# T2 sequence (P36888 whole entry): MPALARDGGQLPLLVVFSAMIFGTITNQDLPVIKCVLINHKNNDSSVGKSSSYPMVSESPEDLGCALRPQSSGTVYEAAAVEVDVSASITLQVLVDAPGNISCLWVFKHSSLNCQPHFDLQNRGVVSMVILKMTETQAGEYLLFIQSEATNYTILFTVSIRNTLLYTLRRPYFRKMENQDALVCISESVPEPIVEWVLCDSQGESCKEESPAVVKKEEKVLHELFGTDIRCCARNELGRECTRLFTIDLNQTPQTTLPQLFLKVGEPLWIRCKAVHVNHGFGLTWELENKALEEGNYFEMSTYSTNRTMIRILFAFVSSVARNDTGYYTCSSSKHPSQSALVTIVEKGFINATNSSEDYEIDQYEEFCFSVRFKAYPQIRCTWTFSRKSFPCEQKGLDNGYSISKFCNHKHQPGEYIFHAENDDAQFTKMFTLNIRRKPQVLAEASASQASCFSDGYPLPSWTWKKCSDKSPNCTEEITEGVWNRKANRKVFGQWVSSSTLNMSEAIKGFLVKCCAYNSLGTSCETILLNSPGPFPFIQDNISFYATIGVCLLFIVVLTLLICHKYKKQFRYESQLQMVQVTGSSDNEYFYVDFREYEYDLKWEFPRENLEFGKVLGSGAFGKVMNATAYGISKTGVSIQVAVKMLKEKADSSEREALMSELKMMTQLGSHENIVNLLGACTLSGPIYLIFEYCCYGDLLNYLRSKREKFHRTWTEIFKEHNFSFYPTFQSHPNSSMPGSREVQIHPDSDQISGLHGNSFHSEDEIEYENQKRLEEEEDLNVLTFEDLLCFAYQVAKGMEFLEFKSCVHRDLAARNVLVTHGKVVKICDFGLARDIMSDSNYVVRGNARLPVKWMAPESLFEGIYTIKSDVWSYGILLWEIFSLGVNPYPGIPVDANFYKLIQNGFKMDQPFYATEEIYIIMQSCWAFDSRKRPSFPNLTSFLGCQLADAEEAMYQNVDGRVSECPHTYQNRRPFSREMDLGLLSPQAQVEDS
# [7] = Inhibition of human muscle mitochondrial complex 1 by spectrophotometric assay
# [8] = target: C-X-C chemokine receptor type 4 (Homo sapiens, UniProt P61073); assay: Displacement of 125I-SDF-1 from human CXCR4 expressed in HEK293 cells incubated for 1.5 hrs by Topcount analysis; type: cell-based
# C-X-C chemokine receptor type 4, sequence (P61073 whole entry): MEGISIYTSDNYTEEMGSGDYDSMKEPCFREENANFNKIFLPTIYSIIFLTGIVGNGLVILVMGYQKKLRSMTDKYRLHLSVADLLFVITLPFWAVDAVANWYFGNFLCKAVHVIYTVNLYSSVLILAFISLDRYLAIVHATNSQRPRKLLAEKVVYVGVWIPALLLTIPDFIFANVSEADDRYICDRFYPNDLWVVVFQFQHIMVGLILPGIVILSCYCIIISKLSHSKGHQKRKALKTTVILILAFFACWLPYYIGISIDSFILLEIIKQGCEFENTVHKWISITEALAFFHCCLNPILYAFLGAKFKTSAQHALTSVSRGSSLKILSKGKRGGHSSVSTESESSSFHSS
# Aurora kinase A = target: T3, Aurora kinase A (Homo sapiens, UniProt O14965); assay: Inhibition of Aurora A (unknown origin)
# T3 sequence (O14965 whole entry): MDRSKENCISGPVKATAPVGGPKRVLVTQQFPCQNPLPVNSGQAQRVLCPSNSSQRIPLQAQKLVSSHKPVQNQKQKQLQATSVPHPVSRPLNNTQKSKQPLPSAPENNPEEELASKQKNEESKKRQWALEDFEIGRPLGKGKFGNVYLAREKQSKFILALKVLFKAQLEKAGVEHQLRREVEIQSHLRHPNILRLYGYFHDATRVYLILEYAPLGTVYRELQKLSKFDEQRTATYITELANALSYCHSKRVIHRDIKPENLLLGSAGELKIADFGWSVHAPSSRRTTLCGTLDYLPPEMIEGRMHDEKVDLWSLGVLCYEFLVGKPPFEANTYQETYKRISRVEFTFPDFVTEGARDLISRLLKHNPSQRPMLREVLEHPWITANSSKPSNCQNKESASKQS
# [9] = target: Epidermal growth factor receptor (Homo sapiens, UniProt P00533); assay: Inhibition of human EGFR incubated for 2 hrs by Kinase-Glo luminescent kinase assay
# Epidermal growth factor receptor, sequence (P00533 whole entry): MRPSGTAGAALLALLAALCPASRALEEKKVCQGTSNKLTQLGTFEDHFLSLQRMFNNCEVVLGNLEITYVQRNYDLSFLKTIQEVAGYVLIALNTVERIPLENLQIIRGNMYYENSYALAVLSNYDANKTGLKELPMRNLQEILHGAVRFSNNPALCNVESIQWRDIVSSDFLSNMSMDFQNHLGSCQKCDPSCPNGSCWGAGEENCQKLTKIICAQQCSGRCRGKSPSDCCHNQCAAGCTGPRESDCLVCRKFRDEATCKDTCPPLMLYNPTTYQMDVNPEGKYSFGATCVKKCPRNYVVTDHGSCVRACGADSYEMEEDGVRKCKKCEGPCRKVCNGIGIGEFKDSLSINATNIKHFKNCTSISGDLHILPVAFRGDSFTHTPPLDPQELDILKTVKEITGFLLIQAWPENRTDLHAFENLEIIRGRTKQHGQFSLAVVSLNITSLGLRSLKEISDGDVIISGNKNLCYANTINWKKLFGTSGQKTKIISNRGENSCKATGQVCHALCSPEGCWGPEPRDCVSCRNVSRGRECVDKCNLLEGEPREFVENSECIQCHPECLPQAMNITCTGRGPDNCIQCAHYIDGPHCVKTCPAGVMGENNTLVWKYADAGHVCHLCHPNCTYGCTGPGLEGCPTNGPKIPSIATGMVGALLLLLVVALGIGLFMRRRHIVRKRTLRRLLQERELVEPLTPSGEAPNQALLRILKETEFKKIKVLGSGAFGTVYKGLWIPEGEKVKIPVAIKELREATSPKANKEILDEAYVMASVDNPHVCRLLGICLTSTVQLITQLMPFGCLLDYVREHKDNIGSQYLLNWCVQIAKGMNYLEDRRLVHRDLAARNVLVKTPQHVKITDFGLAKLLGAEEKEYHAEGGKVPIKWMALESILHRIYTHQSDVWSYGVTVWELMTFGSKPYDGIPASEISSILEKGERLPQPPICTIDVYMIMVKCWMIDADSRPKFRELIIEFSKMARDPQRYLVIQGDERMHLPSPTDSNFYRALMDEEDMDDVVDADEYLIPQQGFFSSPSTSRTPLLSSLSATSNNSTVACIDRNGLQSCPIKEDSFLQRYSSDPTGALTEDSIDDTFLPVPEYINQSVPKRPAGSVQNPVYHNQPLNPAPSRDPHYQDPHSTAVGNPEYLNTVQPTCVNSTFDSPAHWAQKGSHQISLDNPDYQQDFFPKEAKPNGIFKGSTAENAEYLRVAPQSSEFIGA
# Mu-type opioid receptor = Mu-type opioid receptor (Homo sapiens, UniProt P35372); assay: Inhibition of recombinant mu-opioid receptor (unknown origin) expressed in CHO cells for 60 mins; type: cell-based
# Mu-type opioid receptor, sequence (P35372 whole entry): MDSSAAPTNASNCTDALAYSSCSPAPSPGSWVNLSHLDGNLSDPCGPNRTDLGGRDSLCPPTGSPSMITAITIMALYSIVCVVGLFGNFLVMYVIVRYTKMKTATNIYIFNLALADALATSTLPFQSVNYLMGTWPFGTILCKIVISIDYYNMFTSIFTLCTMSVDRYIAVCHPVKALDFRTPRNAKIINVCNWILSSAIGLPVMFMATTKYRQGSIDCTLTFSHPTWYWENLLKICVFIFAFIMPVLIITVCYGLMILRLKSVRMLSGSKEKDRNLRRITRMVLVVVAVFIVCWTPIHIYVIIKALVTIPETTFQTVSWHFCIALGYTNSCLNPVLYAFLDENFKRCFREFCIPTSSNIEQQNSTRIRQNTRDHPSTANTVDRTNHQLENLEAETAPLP
# Catalase = target: T4, Catalase (Homo sapiens, UniProt P04040); assay: Inhibition of catalase (unknown origin)
# T4 sequence (P04040 whole entry): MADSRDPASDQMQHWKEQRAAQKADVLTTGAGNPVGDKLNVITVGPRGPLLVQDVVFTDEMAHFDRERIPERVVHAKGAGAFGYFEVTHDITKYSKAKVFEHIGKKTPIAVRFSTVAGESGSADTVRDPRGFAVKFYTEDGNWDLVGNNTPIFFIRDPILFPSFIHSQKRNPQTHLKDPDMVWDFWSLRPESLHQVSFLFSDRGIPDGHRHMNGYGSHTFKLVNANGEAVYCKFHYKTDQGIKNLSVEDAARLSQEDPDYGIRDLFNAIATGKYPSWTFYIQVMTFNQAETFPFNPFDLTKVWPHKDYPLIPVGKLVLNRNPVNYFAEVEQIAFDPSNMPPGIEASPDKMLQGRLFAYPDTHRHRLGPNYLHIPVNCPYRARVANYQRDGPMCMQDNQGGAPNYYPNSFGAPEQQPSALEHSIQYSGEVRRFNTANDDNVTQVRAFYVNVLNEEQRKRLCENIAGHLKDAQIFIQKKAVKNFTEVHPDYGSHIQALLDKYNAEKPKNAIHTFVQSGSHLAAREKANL
# Indoleamine 2,3-dioxygenase 1, sequence (P14902 whole entry): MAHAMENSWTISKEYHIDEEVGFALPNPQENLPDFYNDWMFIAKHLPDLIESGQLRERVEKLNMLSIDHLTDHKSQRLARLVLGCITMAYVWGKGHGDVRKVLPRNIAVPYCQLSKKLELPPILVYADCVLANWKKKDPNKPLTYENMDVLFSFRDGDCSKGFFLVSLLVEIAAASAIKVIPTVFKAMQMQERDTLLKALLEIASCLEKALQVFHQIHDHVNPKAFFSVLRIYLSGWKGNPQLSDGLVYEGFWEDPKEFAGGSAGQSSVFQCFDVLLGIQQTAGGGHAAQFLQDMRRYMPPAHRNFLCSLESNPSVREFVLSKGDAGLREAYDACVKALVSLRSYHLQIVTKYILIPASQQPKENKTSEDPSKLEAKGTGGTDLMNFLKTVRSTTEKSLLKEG
Compound,IC50 [1] [µM],IC50 [2] [µM],also measured
COC1CCN(C(=O)c2ccc(Cn3nnc4c3C(=O)c3ccccc3C4=O)cc2)CC1,1.59,0.209,–
O=C(O)c1ccc(Cn2nnc3c2C(=O)c2ccccc2C3=O)cc1,2.32,0.312,–
CCN(CC)C(=O)c1ccc(Cn2nnc3c2C(=O)c2ccccc2C3=O)cc1,1.93,0.181,–
CN1CCN(C(=O)c2ccc(Cn3nnc4c3C(=O)c3ccccc3C4=O)cc2)CC1,2.07,0.108,–
O=C(O)c1cccc(Cn2nnc3c2C(=O)c2ccccc2C3=O)c1,1.24,0.167,–
O=C1c2ccccc2C(=O)c2c1nnn2Cc1ccc(Cl)cc1,> 10,6.46,–
Cc1ccc(Cn2nnc3c2C(=O)c2ccccc2C3=O)cc1,1.77,1.09,–
O=C1c2ccccc2C(=O)c2c1nnn2Cc1ccc(Br)cc1,> 10,1.59,–
Cc1cccc(Cn2nnc3c2C(=O)c2ccccc2C3=O)c1,4.61,1.75,–
O=C1c2ccccc2C(=O)c2c1nnn2Cc1cccc(Br)c1,3.16,0.768,–
O=C1c2ccccc2C(=O)c2c1nnn2Cc1ccc(F)cc1,2.59,7.38,–

# Now those with a lower IC50 [1], led by results:
IC50 [1] [µM],IC50 [2] [µM],Compound,also measured
1.1,0.176,CC(=O)N1CCN(C(=O)c2ccc(Cn3nnc4c3C(=O)c3ccccc3C4=O)cc2)CC1,–
0.982,0.116,O=C1c2ccccc2C(=O)c2c1nnn2Cc1ccc(C(=O)N2CCOCC2)cc1,–
0.977,0.09,CCN(CC)C(=O)c1cccc(Cn2nnc3c2C(=O)c2ccccc2C3=O)c1,–
0.936,0.048,O=C1c2ccccc2C(=O)c2c1nnn2Cc1cccc(C(=O)N2CCOCC2)c1,–
0.922,0.145,CCN(CC)C(=O)Cc1ccc(Cn2nnc3c2C(=O)c2ccccc2C3=O)cc1,–
0.809,0.561,Cc1ccccc1Cn1nnc2c1C(=O)c1ccccc1C2=O,IC50 [5]: > 10 µM; IC50 [6]: > 10 µM; IC50 [7]: > 10 µM; IC50 [8]: > 10 µM; IC50 (Aurora kinase A): > 10 µM; IC50 [9]: > 10 µM; IC50 (Mu-type opioid receptor): > 10 µM; IC50 (Catalase): > 10 µM
0.767,0.711,O=C1c2ccccc2C(=O)c2c1nnn2Cc1cccc(Cl)c1,IC50 [3]: > 10 µM; AC50 [4]: > 50 µM
0.64,–,CN1CCN(C(=O)c2cccc(Cn3nnc4c3C(=O)c3ccccc3C4=O)c2)CC1,IC50 [5]: > 10 µM; IC50 [6]: > 10 µM; IC50 [7]: > 10 µM; IC50 [3]: > 10 µM; IC50 [8]: > 10 µM; IC50 (Aurora kinase A): > 10 µM; IC50 [9]: > 10 µM; AC50 [4]: > 50 µM; IC50 (Mu-type opioid receptor): > 10 µM; IC50 (Catalase): > 10 µM
0.602,0.059,CC(=O)N1CCN(C(=O)c2cccc(Cn3nnc4c3C(=O)c3ccccc3C4=O)c2)CC1,–
